Earlier results as cited in paper PMC2151269, “Broad phase II and pharmacokinetic study of methoxy-morpholino doxorubicin (FCE 23762-MMRDX) in non-small-cell lung cancer, renal cancer and other solid tumour patients” (British Journal of Cancer, 1998).

Design: method as in Tidefelt et al, 1989
Conditions: 0-48 h after simultaneous infusion of 20 mg of epirubicin and 20 mg of doxorubicin; ref Tidefelt et al, 1989; cited from earlier work

Row | Compound | Peak cellular concentrations relative to plasma concentrations
1 | COc1cccc2c1C(=O)c1c(O)c3c(c(O)c1C2=O)C[C@@](O)(C(=O)CO)C[C@@H]3O[C@H]1C[C@H](N)[C@H](O)[C@H](C)O1 [doxorubicin] | around 200 times
2 | COc1cccc2c1C(=O)c1c(O)c3c(c(O)c1C2=O)C[C@@](O)(C(=O)CO)C[C@@H]3O[C@H]1C[C@H](N)[C@@H](O)[C@H](C)O1 [epirubicin] | around 200 times
